Test results taken from patent US9545418B2, “ON01910.Na enhances chemotherapeutic agent activity in drug-resistant tumors” (THE JOHNS HOPKINS UNIVERSITY, priority 2008, dated 2017).

Assays:
[1] = test system: Tumor 28 (pancreatic tumor); assay: Direct pancreatic cancer derived xenograft, Tumor 28; assay type: in vivo, mice; conditions: Gemcitabine 100 mg/kg 2 times/week for 4 weeks, ON-01910.Na 250 mg/kg/day for 4 weeks
From the text: (§1) Resected pancreatic adenocarcinomas are routinely implanted in nude mice at the Johns Hopkins Medical Institutions as a method to obtain enriched populations of neoplastic cells under an IRB-approved protocol from residual pancreatic cancer tumors. Briefly, tumor specimens from Whipple resection specimens were divided into 2-3 mm^3 pieces in antibiotic-containing RPMI media. Pieces of non-necrotic tissue were selected and immersed in Matrigel. Under anesthesia with isofluorane, tumors were implanted into five-to-six week-old female athymic (nu/nu) mice purchased from Harlan (Harlan Laboratories, Washington, D.C.). […] Tumor size was determined using calipers every four days for the course of the experiment. Relative tumor growth inhibition (TGI) was calculated as TGI=(Ti−T0/Ci−C0), where Ti and Ci represent tumor size in the treated and control group at 28-day, respectively; […] Experiments were terminated on day 28. […] Pancreatic tumors were implanted in mice as detailed above. Mice were treated with gemcitabine alone, ON-01910-Na alone, or a combination thereof as indicated. Tumor size was measured at four day intervals.

[2] = test system: Tumor JH03 (pancreatic tumor); assay: Direct pancreatic cancer derived xenograft, Tumor JH03; assay type: in vivo, mice; conditions: Gemcitabine 100 mg/kg 2 times/week for 4 weeks, ON-01910.Na 250 mg/kg/day for 4 weeks
From the text: as §1

[3] = test system: Tumor 41 (pancreatic tumor); assay: Direct pancreatic cancer derived xenograft, Tumor 41; assay type: in vivo, mice; conditions: Gemcitabine 100 mg/kg 2 times/week for 4 weeks, ON-01910.Na 250 mg/kg/day for 4 weeks
From the text: as §1

Plk1 = Plk1 expression analysis by RT-PCR in xenograft tumors harvested on day 28; assay type: in vivo, mice; conditions: JH03 tumor, day 28, compared with the other tumors
From the text: Total RNA was extracted from cell pellets (and tumors) using the RNeasy™ Mini Kit (Qiagen, Valencia, Calif.). cDNA was synthesized using iScript cDNA synthesis kit (Bio-Rad, Hercules, Calif.) following the manufacturer's instructions. Relative quantification of Plk1 and ubiquitin C (UBC, used as housekeeper gene) mRNA was achieved using an iCycler iQ real-time PCR detection system (Bio-Rad) using ABI Taqman probes (Foster City, Calif.). The experiments were repeated twice and samples were run in quadruplicate.
On day 28, animals were euthanized and tumors were removed for Plk1 expression analysis by RT-PCR using standard protocols. Plk1 expression levels were expressed relative to expression in non-drug treated control.
On day 28, tumors were harvested and analyzed for Plk1 expression (FIG. 2C).

[4] = test system: Solid tumors including prostate, breast, and lung; conditions: oral; cited from earlier work

| SMILES | susceptibility of tumor to treatment (tumor growth) [1] | susceptibility of tumor to treatment (tumor growth) [2] | susceptibility of tumor to treatment (tumor growth) [3] | Plk1 expression in tumor after exposure (Plk1) | maximum tolerated dose [4] |
| --- | --- | --- | --- | --- | --- |
| Nc1ccn(C2OC(CO)C(O)C2(F)F)c(=O)n1 (centres unmarked) [gemcitabine, 4-amino-1-[3,3-difluoro-4-hydroxy-5-(hydroxymethyl)tetrahydrofuran-2-yl]-1H-pyrimidin-2-one] | resistant | susceptible | susceptible | lowest expression of Plk1 | – |
| CCCCCCCCCCCCCCCC(=O)Nc1ccn([C@@H]2O[C@H](CO)[C@@H](O)[C@@H]2C#N)c(=O)n1 [sapacitabine] | – | – | – | – | dose 160 mg/m^2/day |
